Results published in patent US12465604B2 (priority 2015, dated 2025).
Marks after values point to notes of the source that are not given here.

Experiments:
[1] = test system: HIV-based vector integration sites in SupT1 cells; assay: Integration site distribution of HIV-based vector near mapped genomic features; type: cell-based
[2] = test system: HIV-based vector integration sites in SupT1 cells; assay: Integration frequency near safe harbor criteria; type: cell-based
[3] = test system: single-round HIV-based lentiviral vector in SupT1 cells; assay: Transduction efficiency of single-round HIV-based lentiviral vector (eGFP flow cytometry); type: cell-based; conditions: dilution series, data not shown
Source text: In a next step we employed the recently developed LEDGINs, small molecules that inhibit LEDGF/p75-IN interaction and inhibit integration of HIV provirus (Christ et al., 2010, above) to investigate the impact of LEDGIN treatment on the HIV reservoir in cell culture. SupT1 cells were transduced with a single-round HIV-based lentiviral vector expressing the enhanced Green Fluorescent Protein (eGFP) reporter protein and treated with a dilution series of LEDGIN CX014442 (Christ et al 2012, above). […] In a first step, we determined integration site distribution of HIV-based viral vector integration sites (Gijsbers et al., 2009; Marshall et al., 2007). The number of integration sites is indicated for each data set (Table 2). First, we analysed lentiviral integration relative to a set of genomic features.

[4] = test system: HIV OGH double reporter virus in SupT1 cells; type: cell-based, HIV-1; conditions: SupT1, 3 days post infection, increasing concentrations
[5] = test system: HIV NL4-3.tCD34.R-.E- in SupT1 cells; assay: microbe, parasite or virus in culture; type: cell-based; conditions: Human immunodeficiency virus 1, NL43, SUP-T1, read-out: inhibition of reactivation from latency
[6] = test system: HIV-OGH double reporter virus in SupT1 cells; assay: Reactivation with TNFα, SupT1 cells infected with HIV-OGH double reporter virus; type: cell-based, HIV-1; conditions: SupT1, 50 μM
Method: To corroborate these findings SupT1 cells were infected with the HIV-OGH double reporter virus under different LEDGIN (CX014442) concentrations. SupT1 cells were infected and reactivated under conditions similar to the experiment with HIV tCD34 (FIGS. 2 and 5). Data are represented in FIG. 6. Two different virus dilutions are depicted in panel A and B. In both graphs the percentage eGFP+, mKO2+ cells and overall % mKO2 positive cells is plotted after stimulation with DMSO or TNFα for 24 h. The dashed lines show an increase in percentage of eGFP+, mKO2+ cells after stimulation with TNFα compared to DMSO, while the overall percentage of mKO2 positive cells remains constant. LEDGIN treatment reduces the reactivation of eGFP+, mKO2+ cells in a concentration-dependent manner, with 50 μM of CX014442 reducing reactivation to only 1.5-2 fold (FIG. 6C).
11 days post infection the infected cells were reactivated from latency using TNFalpha (10 ng/mL, Immunosource), SAHA (0.3 to 3 μM, AIDS reagents), prostratin (5 μM, AIDS reagents) or PMA (0.3 μM, AIDS reagents) 24 hours prior to analysis by flow cytometry. Time courses and drug concentrations are indicated in the individual experiments. LEDGINs were synthesized by the Cistim/CD3-facility (courtesy of Dr. A. Marchand).

HIV-1 = assay: 'late' IC50 stated in legend of FIG. 8; type: cell-based; conditions: Human immunodeficiency virus 1
[7] = test system: OGH reporter virus in activated primary CD4+ T-cells; conditions: 3 days post infection, trend
Source text: Peripheral Blood Mononuclear cells (PBMCs) were purified and CD4+ T-cells selectively enriched using Bi-specific MAb CD3.8 (AIDS reagents) for 5 days and infected with the OGH reporter virus. HIV infection was monitored 3 days post infection using flow cytometry analysis (FIG. 4).
Human PBMCs were purified, selectively enriched for CD4+ T cells using Bi-specific MAb CD3.8 and infected with the OGH reporter virus, in the presence or absence of LEDGINs (FIG. 7a,b).
Human peripheral blood mononuclear cells (PBMCs), obtained from the Red Cross Blood transfusion Center (Mechelen, Belgium) according to approved bioethical guidelines of our institute (S57175-IRB00002047), were purified from fresh buffy coats using lymphoprep density gradient centrifugation (Stem cell technologies). The CD4+ T cells were selectively enriched using Bi-specific MAb CD3.8 (0.5 μg/mL, AIDS reagents) for 5 days. Cells were cultured in RPMI 1640, 15% v/v FBS, 0.1% v/v Gentamicin, 100 U/ml IL-2 (Peprotech) (T-cell medium, TCM). Enriched total CD4+ primary T cells were infected with single round reporter virus for 2 h at 37° C., washed twice in TCM and reseeded in medium containing different concentrations of LEDGIN CX014442. HIV infection was monitored 48 h post infection using flow cytometry analysis.

[8] = test system: NL4.3 virus in primary CD4+ T cells
Source text: Next we evaluated the multimodal effect of LEDGIN treatment on integration, assembly and reactivation in a multiple round reactivation model using WT HIV in resting CD4+ T-cells in order to model the in vivo situation. PHA/IL-2 activated primary (resting) CD4+ T cells were infected with NL4.3 virus in the presence of submicromolar concentrations of LEDGINs. At day four post infection (p.i.) LEDGINs were removed and cells were reseeded in the presence of PMA and PHA. Virus production upon reactivation was measured at day 7 p.i. by p24 ELISA.
Resting CD4+ T cells were purified using a custom-made EasySep negative selection kit (Stem Cell Technologies; 19052 cocktail, with the addition of CD25, CD69, and HLA-DR antibodies (catalogue number 19309VK)). […] Four days post-infection cells were washed twice using PBS and some cells were harvested for quantification of integrated proviral DNA using real time PCR (nested Alu-LTR PCR, (Butler et al., 2001; Lewin et al., 2008) normalized for input DNA by qPCR for the CCR5 gene as previously described (Zhang et al., 1999). Other cells were reseeded in the presence of 10 nM PMA (Sigma-Aldrich) together with 10 μg/mL PHA (Sigma-Aldrich) or left untreated. PHA activated feeder peripheral blood mononuclear cells (PBMCs) were added 24 h after the activating stimulus to amplify virus replication and enhance detection of the infection (Saleh et al., 2011). […]

[9] = test system: NL4-3.tCD34.R-.E-/VSV-G latent provirus in Nalm wt (+/c) cells; type: cell-based, HIV
[10] = test system: NL4-3.tCD34.R-.E-/VSV-G latent provirus in Nalm LEDGF/p75 KO (−/−) cells; type: cell-based, HIV
[11] = compound concentration 0.78125 μM
[12] = compound concentration 1.5625 μM
[13] = compound concentration 3.125 μM

Structure (SMILES): CCCC(C(=O)O)c1c(C)nc2ccc(Cl)cc2c1-c1ccccc1 (centres unmarked) [CX014442, 2-(6-chloro-2-methyl-4-phenylquinolin-3-yl)pentanoic acid]
- % CpG within 2 kb ([1]; compound concentration 0.54 μM): 2.33%
- % CpG within 4 kb ([1]; compound concentration 0.54 μM): 5.83%
- % DHS within 2 kb ([1]; compound concentration 0.54 μM): 24.07%
- % DHS within 4 kb ([1]; compound concentration 0.54 μM): 39.94%
- % TSS within 2 kb ([1]; compound concentration 0.54 μM): 2.00%
- % TSS within 4 kb ([1]; compound concentration 0.54 μM): 5.92%
- in RefGene ([1]; compound concentration 0.54 μM): 70.58%
- % CpG within 2 kb ([1]; compound concentration 1.5 μM): 2.37%
- % CpG within 4 kb ([1]; compound concentration 1.5 μM): 5.79%
- % DHS within 2 kb ([1]; compound concentration 1.5 μM): 20.94%
- % DHS within 4 kb ([1]; compound concentration 1.5 μM): 37.18%
- % TSS within 2 kb ([1]; compound concentration 1.5 μM): 2.41%
- % TSS within 4 kb ([1]; compound concentration 1.5 μM): 5.88%
- in RefGene ([1]; compound concentration 1.5 μM): 70.37%
- % CpG within 2 kb ([1]; compound concentration 3 μM): 1.73%
- % CpG within 4 kb ([1]; compound concentration 3 μM): 5.39%
- % DHS within 2 kb ([1]; compound concentration 3 μM): 21.49%
- % DHS within 4 kb ([1]; compound concentration 3 μM): 37.55%
- % TSS within 2 kb ([1]; compound concentration 3 μM): 1.97%
- % TSS within 4 kb ([1]; compound concentration 3 μM): 5.59%
- in RefGene ([1]; compound concentration 3 μM): 66.60%
- % CpG within 2 kb ([1]; compound concentration 6 μM): 2.97%
- % CpG within 4 kb ([1]; compound concentration 6 μM): 6.39%
- % DHS within 2 kb ([1]; compound concentration 6 μM): 21.78%
- % DHS within 4 kb ([1]; compound concentration 6 μM): 37.12%
- % TSS within 2 kb ([1]; compound concentration 6 μM): 3.03%
- % TSS within 4 kb ([1]; compound concentration 6 μM): 6.45%
- in RefGene ([1]; compound concentration 6 μM): 65.23** %
- % CpG within 2 kb ([1]; compound concentration 12 μM): 3.39%
- % CpG within 4 kb ([1]; compound concentration 12 μM): 7.35%
- % DHS within 2 kb ([1]; compound concentration 12 μM): 23.6%
- % DHS within 4 kb ([1]; compound concentration 12 μM): 38.57%
- % TSS within 2 kb ([1]; compound concentration 12 μM): 3.96** %
- % TSS within 4 kb ([1]; compound concentration 12 μM): 7.58%
- in RefGene ([1]; compound concentration 12 μM): 61.88*** %
- % CpG within 2 kb ([1]; compound concentration 25 μM): 4.97** %
- % CpG within 4 kb ([1]; compound concentration 25 μM): 10.26** %
- % DHS within 2 kb ([1]; compound concentration 25 μM): 22.19%
- % DHS within 4 kb ([1]; compound concentration 25 μM): 40.07%
- % TSS within 2 kb ([1]; compound concentration 25 μM): 4.30** %
- % TSS within 4 kb ([1]; compound concentration 25 μM): 8.94%
- in RefGene ([1]; compound concentration 25 μM): 60.93*** %
- % CpG within 2 kb ([1]; compound concentration 50 μM): 5.50%
- % CpG within 4 kb ([1]; compound concentration 50 μM): 11.72*** %
- % DHS within 2 kb ([1]; compound concentration 50 μM): 26.08%
- % DHS within 4 kb ([1]; compound concentration 50 μM): 40.67%
- % TSS within 2 kb ([1]; compound concentration 50 μM): 6.94%
- % TSS within 4 kb ([1]; compound concentration 50 μM): 12.68*** %
- in RefGene ([1]; compound concentration 50 μM): 54.55%
- epigenetic preference of integration for transcriptionally active regions ([1]; histone marks, data not shown): inverted in a dose dependent manner
- concentration at which a significant difference compared to wt in global integration preferences was reached ([1]; shift out of transcriptionally active regions): above 12 μM
- % in UCR [2, 11]: 6.36%
- % in transcript. Units [2, 11]: 74.95%
- % within 50 kb of TSS [2, 11]: 31.13%
- % within 300 kb of miRNAs [2, 11]: 25.54%
- % within 300 kb of onco [2, 11]: 38.15%
- Total % safe [2, 11]: 11.14%
- % in UCR [2, 12]: 7.24%
- % in transcript. Units [2, 12]: 75.11%
- % within 50 kb of TSS [2, 12]: 29.28%
- % within 300 kb of miRNAs [2, 12]: 22.52%
- % within 300 kb of onco [2, 12]: 35.47%
- Total % safe [2, 12]: 10.36%
- % in UCR [2, 13]: 7.77%
- % in transcript. Units [2, 13]: 71.91%
- % within 50 kb of TSS [2, 13]: 28.57%
- % within 300 kb of miRNAs [2, 13]: 23.34%
- % within 300 kb of onco [2, 13]: 35.45%
- Total % safe [2, 13]: 11.31%
- % in UCR ([2]; compound concentration 6.25 μM): 6.03%
- % in transcript. Units ([2]; compound concentration 6.25 μM): 70.48%
- % within 50 kb of TSS ([2]; compound concentration 6.25 μM): 29.46%
- % within 300 kb of miRNAs ([2]; compound concentration 6.25 μM): 21.76%
- % within 300 kb of onco ([2]; compound concentration 6.25 μM): 33.03%
- Total % safe ([2]; compound concentration 6.25 μM): 13.32%
- % in UCR ([2]; compound concentration 12.5 μM): 9.39%
- % in transcript. Units ([2]; compound concentration 12.5 μM): 67.42%
- % within 50 kb of TSS ([2]; compound concentration 12.5 μM): 31.33%
- % within 300 kb of miRNAs ([2]; compound concentration 12.5 μM): 24.89%
- % within 300 kb of onco ([2]; compound concentration 12.5 μM): 33.03%
- Total % safe ([2]; compound concentration 12.5 μM): 13.24%
- % in UCR ([2]; compound concentration 25 μM): 6.95%
- % in transcript. Units ([2]; compound concentration 25 μM): 66.06%
- % within 50 kb of TSS ([2]; compound concentration 25 μM): 29.80%
- % within 300 kb of miRNAs ([2]; compound concentration 25 μM): 21.52%
- % within 300 kb of onco ([2]; compound concentration 25 μM): 35.26%
- Total % safe ([2]; compound concentration 25 μM): 14.57%
- % in UCR ([2]; compound concentration 50 μM): 5.98%
- % in transcript. Units ([2]; compound concentration 50 μM): 59.57%
- % within 50 kb of TSS ([2]; compound concentration 50 μM): 32.54%
- % within 300 kb of miRNAs ([2]; compound concentration 50 μM): 22.25%
- % within 300 kb of onco ([2]; compound concentration 50 μM): 35.65%
- Total % safe ([2]; compound concentration 50 μM): 16.51%
- % eGFP positive cells (transduction efficiency) [3]: dose-dependent decrease
- % eGFP+, mKO2+ cells [4]: dose dependent decrease
- overall % mKO2 positive cells [4]: dose dependent decrease
- EC50 [5]: 7.24 µM
- reactivation of eGFP+, mKO2+ cells after TNFα relative to DMSO [6]: 1.5-2 fold
- IC50 (HIV-1): 0.06 µM
- % latently infected cells [7]: increased
- number of proviral DNA copies ([8]; 4 days p.i., submicromolar concentrations): reduced
- p24 production upon reactivation with PMA and PHA ([8]; day 7 p.i., average of two donors): reduced

Structure (SMILES): O=C(CCCCCCC(=O)Nc1ccccc1)NO [SAHA, Suberoylanilide Hydroxamic acid]
- reactivation of tCD34 expression [9]: 3- to 4 fold
- reactivation of tCD34 expression [10]: 2 fold
